Measured values published in ChEMBL document CHEMBL3994586, “Treatment of estrogen-dependent diseases: Design, synthesis and profiling of a selective 17β-HSD1 inhibitor with sub-nanomolar IC50 for a proof-of-principle study” (Eur J Med Chem, 2017).

How the values were obtained:
[1] = molecular target: T1, 17-beta-hydroxysteroid dehydrogenase type 1 (Homo sapiens, UniProt P14061); experiment: Inhibition of human placental cytosolic 17beta-HSD1 assessed as reduction in activation of [2,4,6,7-3H]-E1 substrate to E2 after 10 mins in presence of NADH by RP-HPLC method
T1 sequence (P14061 whole entry): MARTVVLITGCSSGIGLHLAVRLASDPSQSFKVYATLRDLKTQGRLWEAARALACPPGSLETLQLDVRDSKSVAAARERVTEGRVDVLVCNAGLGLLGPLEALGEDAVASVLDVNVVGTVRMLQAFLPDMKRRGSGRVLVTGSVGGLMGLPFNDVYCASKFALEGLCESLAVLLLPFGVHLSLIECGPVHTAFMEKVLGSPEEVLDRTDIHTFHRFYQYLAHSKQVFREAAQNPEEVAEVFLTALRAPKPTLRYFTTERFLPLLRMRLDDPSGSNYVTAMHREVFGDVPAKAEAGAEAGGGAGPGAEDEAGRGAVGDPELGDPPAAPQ

[2] = molecular target: T2, 17-beta-hydroxysteroid dehydrogenase type 2 (Homo sapiens, UniProt P37059); experiment: Inhibition of human placental microsomal 17beta-HSD2 using [2,4,6,7-3H]-E2 as substrate after 20 mins in presence of NAD+ by RP-HPLC method
T2 sequence (P37059 whole entry): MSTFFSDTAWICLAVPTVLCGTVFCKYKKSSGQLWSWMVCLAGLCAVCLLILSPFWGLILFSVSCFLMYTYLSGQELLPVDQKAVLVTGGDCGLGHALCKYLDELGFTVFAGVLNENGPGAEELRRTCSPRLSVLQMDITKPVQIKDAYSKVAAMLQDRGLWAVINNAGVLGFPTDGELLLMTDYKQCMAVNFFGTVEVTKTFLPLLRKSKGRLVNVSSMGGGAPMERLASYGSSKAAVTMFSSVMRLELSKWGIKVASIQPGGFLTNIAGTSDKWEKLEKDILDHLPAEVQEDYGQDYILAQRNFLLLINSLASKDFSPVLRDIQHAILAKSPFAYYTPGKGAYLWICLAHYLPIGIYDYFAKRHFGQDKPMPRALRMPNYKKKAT

[3] = molecular target: T3, Estrogen receptor alpha (ERalpha) (Homo sapiens, UniProt P03372); experiment: Displacement of [3H]E2 from human recombinant ERalpha assessed as receptor binding at 3 uM after 16 to 20 hrs by liquid scintillation counting method relative to control; conditions: probe [3H]E2, read-out: Activity
T3 sequence (P03372 whole entry): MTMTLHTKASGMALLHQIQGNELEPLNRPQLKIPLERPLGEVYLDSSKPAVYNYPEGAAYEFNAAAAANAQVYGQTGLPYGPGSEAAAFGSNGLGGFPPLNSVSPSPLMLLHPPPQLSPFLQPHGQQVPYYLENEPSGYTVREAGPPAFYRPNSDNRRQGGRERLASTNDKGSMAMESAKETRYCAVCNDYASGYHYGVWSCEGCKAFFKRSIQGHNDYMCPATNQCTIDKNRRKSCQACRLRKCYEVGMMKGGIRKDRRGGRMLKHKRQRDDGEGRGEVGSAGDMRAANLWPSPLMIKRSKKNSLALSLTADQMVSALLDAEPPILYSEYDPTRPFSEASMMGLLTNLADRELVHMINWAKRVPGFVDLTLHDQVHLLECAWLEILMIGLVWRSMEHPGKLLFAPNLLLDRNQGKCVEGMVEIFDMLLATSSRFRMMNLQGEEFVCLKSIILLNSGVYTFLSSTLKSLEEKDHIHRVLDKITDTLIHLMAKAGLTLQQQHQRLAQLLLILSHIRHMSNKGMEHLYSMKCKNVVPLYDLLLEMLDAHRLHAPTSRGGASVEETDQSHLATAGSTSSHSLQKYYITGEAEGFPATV

[4] = molecular target: Estrogen receptor beta (ERbeta) (Homo sapiens, UniProt Q92731); experiment: Displacement of [3H]E2 from human recombinant ERbeta assessed as receptor binding at 10 uM after 16 to 20 hrs by liquid scintillation counting method relative to control; conditions: probe [3H]E2, read-out: Activity
[5] = system: Salmonella typhimurium; experiment: Mutagenicity in Salmonella typhimurium TA7001/7002/7003/7004/7005/7006 up to 100 uM in presence of rat liver S9 fraction by Ames 2 assay; assay type: toxicity; conditions: salmonella enterica subsp. enterica serovar typhimurium
[6] = system: Plasma; experiment: Plasma concentration in Sprague-Dawley rat at 150 umol/kg, sc qd for 4 consecutive days measured on day 8 post dose by HPLC-MS analysis; assay type: ADME, organism-based; conditions: in vivo
[7] = molecular target: CYP2C9 (Homo sapiens, UniProt P11712); experiment: Inhibition of recombinant human CYP2C9 expressed in baculovirus infected insect cell microsomes at 1 uM relative to control; assay type: ADME
[8] = system: Plasma; experiment: Plasma concentration in Sprague-Dawley rat at 150 umol/kg, sc qd for 4 consecutive days measured on day 2 post dose by HPLC-MS analysis; assay type: ADME, organism-based; conditions: in vivo
[9] = system: Salmonella typhimurium; experiment: Mutagenicity in Salmonella typhimurium TA98 up to 100 uM in presence of rat liver S9 fraction by Ames 2 assay; assay type: toxicity; conditions: salmonella enterica subsp. enterica serovar typhimurium
[10] = molecular target: CYP3A4 (Homo sapiens, UniProt P08684); experiment: Inhibition of recombinant human CYP3A4 expressed in baculovirus infected insect cell microsomes at 1 uM relative to control; assay type: ADME
[11] = system: Salmonella typhimurium; experiment: Mutagenicity in Salmonella typhimurium TA98 up to 100 uM by Ames 2 assay; assay type: toxicity; conditions: salmonella enterica subsp. enterica serovar typhimurium
[12] = system: HEK293; experiment: Cytotoxicity against HEK293 cells assessed as reduction in cell viability up to 5.6 uM after 66 hrs by MTT assay; assay type: cell-based; conditions: human, hek293, 66 h
[13] = system: Salmonella typhimurium; experiment: Mutagenicity in Salmonella typhimurium TA7001/7002/7003/7004/7005/7006 up to 100 uM by Ames 2 assay; assay type: toxicity; conditions: salmonella enterica subsp. enterica serovar typhimurium
[14] = molecular target: T4, PXR (NR1I2) (Homo sapiens, UniProt O75469); experiment: Agonist activity at recombinant human PXR at 3.16 uM by co-factor recruitment assay relative to control; assay type: ADME; conditions: read-out: Activity
T4 sequence (O75469 whole entry): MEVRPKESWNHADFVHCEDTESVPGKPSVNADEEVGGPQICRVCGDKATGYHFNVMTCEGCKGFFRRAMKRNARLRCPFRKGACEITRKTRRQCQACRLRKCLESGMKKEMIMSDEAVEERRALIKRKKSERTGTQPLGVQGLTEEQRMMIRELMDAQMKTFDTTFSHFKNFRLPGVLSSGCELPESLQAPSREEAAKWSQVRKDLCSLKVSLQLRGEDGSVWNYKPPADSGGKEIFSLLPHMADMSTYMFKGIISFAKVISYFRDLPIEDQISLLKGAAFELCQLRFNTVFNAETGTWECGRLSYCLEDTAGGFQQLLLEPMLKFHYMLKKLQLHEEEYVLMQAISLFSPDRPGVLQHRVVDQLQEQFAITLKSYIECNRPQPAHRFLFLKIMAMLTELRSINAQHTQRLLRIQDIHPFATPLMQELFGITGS

[15] = Selectivity index, ratio of IC20 for HEK293 cells to IC50 for human placental cytosolic 17beta-HSD1
[16] = molecular target: CYP2D6 (Homo sapiens, UniProt P10635); experiment: Inhibition of recombinant human CYP2D6 expressed in baculovirus infected insect cell microsomes at 1 uM relative to control; assay type: ADME
[17] = system: Plasma; experiment: Plasma concentration in Sprague-Dawley rat at 150 umol/kg, sc qd for 4 consecutive days measured on day 4 post dose by HPLC-MS analysis; assay type: ADME, organism-based; conditions: in vivo
[18] = molecular target: CYP2C19 (Homo sapiens, UniProt P33261); experiment: Inhibition of recombinant human CYP2C19 expressed in baculovirus infected insect cell microsomes at 1 uM relative to control; assay type: ADME
[19] = molecular target: T5, CYP1A2 (Homo sapiens, UniProt P05177); experiment: Inhibition of recombinant human CYP1A2 expressed in baculovirus infected insect cell microsomes at 1 uM relative to control; assay type: ADME
T5 sequence (P05177 whole entry): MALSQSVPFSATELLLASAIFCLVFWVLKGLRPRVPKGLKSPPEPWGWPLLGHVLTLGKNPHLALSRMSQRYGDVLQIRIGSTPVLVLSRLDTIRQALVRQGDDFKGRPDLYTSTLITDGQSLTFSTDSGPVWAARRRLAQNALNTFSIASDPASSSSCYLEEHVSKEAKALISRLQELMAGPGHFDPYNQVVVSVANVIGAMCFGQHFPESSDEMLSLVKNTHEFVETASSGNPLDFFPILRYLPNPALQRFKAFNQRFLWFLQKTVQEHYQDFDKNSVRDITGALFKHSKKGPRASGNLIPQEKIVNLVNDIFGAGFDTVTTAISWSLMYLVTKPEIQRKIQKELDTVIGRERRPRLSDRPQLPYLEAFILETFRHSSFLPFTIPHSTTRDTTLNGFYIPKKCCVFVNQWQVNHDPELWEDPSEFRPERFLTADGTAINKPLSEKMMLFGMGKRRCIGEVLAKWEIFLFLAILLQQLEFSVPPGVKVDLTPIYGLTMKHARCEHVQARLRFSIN

[20] = molecular target: T6, CYP2B6 (Homo sapiens, UniProt P20813); experiment: Inhibition of recombinant human CYP2B6 expressed in baculovirus infected insect cell microsomes at 1 uM relative to control; assay type: ADME
T6 sequence (P20813 whole entry): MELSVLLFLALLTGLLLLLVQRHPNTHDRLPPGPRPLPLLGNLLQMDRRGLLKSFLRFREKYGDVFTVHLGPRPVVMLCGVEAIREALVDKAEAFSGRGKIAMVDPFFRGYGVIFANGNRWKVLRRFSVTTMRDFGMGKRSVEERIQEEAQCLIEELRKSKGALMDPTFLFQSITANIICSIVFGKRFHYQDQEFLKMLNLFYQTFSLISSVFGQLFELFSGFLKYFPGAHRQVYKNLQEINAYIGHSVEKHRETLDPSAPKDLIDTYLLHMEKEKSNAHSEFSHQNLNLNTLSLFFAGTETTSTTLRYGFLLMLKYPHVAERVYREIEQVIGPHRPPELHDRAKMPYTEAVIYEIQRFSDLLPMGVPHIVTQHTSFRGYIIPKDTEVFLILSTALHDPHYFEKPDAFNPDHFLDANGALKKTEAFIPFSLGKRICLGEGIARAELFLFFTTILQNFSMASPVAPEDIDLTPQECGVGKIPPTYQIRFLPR

Chain of Estrogen receptor beta (ERbeta) (Q92731 whole entry): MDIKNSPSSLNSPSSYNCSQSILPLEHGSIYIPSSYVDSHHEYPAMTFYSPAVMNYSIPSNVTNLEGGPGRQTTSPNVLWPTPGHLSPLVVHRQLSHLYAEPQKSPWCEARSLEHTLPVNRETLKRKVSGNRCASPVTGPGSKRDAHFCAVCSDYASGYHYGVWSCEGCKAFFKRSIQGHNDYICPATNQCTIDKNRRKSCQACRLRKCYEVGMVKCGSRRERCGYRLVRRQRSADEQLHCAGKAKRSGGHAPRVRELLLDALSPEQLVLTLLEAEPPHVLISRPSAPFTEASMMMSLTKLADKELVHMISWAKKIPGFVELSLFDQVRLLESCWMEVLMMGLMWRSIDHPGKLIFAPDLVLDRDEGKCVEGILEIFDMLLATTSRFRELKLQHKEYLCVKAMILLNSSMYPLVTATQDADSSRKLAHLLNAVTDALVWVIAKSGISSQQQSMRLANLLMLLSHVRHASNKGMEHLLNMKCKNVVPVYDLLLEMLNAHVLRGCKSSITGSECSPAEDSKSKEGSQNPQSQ
Chain of CYP3A4 (P08684 whole entry): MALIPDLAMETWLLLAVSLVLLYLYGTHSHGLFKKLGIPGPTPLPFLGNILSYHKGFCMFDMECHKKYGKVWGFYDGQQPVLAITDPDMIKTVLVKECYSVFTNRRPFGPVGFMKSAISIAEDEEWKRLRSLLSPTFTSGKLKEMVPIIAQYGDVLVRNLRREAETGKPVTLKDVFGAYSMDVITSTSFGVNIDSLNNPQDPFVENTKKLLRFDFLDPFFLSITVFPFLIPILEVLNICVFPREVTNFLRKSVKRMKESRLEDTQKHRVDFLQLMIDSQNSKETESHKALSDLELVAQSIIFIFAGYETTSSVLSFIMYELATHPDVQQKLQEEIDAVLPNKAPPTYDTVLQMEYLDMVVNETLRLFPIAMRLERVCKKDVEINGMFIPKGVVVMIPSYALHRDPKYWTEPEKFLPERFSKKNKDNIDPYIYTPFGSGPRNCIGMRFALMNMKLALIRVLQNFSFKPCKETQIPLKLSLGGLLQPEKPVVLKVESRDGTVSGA
Chain of CYP2C19 (P33261 whole entry): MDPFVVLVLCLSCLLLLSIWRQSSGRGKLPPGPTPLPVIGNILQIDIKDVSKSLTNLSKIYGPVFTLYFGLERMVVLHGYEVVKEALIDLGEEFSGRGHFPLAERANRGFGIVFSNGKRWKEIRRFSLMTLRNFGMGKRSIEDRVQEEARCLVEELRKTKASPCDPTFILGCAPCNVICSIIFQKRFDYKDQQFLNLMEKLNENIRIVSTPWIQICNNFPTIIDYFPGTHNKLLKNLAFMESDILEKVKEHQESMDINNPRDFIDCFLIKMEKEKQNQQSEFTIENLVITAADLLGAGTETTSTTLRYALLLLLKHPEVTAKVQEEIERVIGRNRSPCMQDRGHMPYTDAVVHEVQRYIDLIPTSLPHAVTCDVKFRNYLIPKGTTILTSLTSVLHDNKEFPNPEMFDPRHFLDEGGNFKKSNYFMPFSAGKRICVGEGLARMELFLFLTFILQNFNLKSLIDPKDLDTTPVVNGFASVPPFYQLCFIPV
Chain of CYP2D6 (P10635 whole entry): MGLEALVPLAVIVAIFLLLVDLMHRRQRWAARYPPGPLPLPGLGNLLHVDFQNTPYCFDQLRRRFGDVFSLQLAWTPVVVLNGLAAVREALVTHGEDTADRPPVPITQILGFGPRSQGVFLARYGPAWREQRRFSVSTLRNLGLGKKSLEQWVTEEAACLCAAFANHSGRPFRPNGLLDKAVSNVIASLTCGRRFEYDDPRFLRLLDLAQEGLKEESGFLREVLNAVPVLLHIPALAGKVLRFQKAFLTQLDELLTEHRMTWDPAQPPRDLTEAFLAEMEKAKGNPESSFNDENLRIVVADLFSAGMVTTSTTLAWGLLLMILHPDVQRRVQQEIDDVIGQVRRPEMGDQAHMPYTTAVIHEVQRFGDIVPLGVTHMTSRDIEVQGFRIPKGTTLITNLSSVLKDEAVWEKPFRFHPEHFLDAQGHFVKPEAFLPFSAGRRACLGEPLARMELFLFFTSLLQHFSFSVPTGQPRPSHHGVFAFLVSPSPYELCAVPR
Chain of CYP2C9 (P11712 whole entry): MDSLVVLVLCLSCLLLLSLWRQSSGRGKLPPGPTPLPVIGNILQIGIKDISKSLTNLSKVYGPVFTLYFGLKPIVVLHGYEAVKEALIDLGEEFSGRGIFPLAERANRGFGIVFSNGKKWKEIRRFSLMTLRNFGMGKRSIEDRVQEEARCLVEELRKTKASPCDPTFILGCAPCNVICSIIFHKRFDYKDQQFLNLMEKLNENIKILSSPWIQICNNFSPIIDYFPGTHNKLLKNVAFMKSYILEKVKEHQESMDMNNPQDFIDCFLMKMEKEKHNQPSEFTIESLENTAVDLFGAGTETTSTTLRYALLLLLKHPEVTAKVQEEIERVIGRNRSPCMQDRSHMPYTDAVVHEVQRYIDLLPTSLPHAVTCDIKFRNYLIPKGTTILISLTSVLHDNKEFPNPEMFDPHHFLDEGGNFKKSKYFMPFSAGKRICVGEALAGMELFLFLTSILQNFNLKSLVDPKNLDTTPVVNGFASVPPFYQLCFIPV

SMILES	IC50 [1] [nM]	IC50 [2] [nM]	activity at 3 µM [3] [%]	activity at 10 µM [4] [%]	other results
O=C(c1ccc(-c2ccccc2)s1)c1c(F)ccc(O)c1F	11	35			
O=C(c1cccc(O)c1)c1ccc(-c2cc(Cl)c(O)c(Cl)c2)s1	73	540			
O=C(c1ccc(-c2cc(Cl)c(O)c(Cl)c2)s1)c1c(F)ccc(O)c1F			37	11	
O=C(c1ccc(-c2cc(Cl)c(O)c(Cn3ccnn3)c2)s1)c1c(F)ccc(O)c1F	18	26			
COc1c(Cl)cc(-c2ccc(C(=O)c3cccc(O)c3)s2)cc1Cl	6	250	8	0	
O=C(c1ccc(-c2ccc(O)c(Cl)c2)s1)c1c(F)ccc(O)c1F			73	55	
COc1ccc(-c2ccc(C(=O)c3c(F)ccc(O)c3F)s2)cc1S(=O)(=O)N1CCOCC1	130	180	0	4	
NS(=O)(=O)c1ccc(-c2ccc(C(=O)c3c(F)ccc(O)c3F)s2)cc1	150	85			

Further lines, with some results ahead:

IC50 [1] [nM]	IC50 [2] [nM]	activity at 3 µM [3] [%]	activity at 10 µM [4] [%]	SMILES	other results
27	47			O=C(c1ccc(-c2cccnc2)s1)c1c(F)ccc(O)c1F	
3	71			O=C(c1ccc(-c2ccc(O)cc2)s1)c1c(F)ccc(O)c1F	
18	38			COc1ccc(-c2ccc(C(=O)c3c(F)ccc(O)c3F)s2)cc1	
		51	69	COc1c(C)cc(-c2ccc(C(=O)c3c(F)ccc(O)c3F)s2)cc1C	
55	86			NS(=O)(=O)c1cccc(-c2ccc(C(=O)c3c(F)ccc(O)c3F)s2)c1	
105 to 110	140			O=C(c1cccc(O)c1)c1ccc(-c2ccc(F)cc2F)s1	
47	55			O=C(c1ccc(-c2ccc(F)cc2F)s1)c1cccc(O)c1F	
		44	6	N#Cc1cc(-c2ccc(C(=O)c3c(F)ccc(O)c3F)s2)ccc1O	
150	39			O=C(c1ccc(-c2ccncc2)s1)c1c(F)ccc(O)c1F	
		17	22	Cc1cc(-c2ccc(C(=O)c3c(F)ccc(O)c3F)s2)cc(C)c1O	
0.5		27	8	COc1c(Cl)cc(-c2ccc(C(=O)c3c(F)ccc(O)c3F)s2)cc1Cl	Activity [5]: Non-Toxic; concentration [6]: 72 nM; inhibition at 1 µM [7]: 0%; concentration [8]: 24 nM; Activity [9]: Non-Toxic; inhibition at 1 µM [10]: 36%; Activity [11]: Non-Toxic; Activity [12]: Non-Toxic; Activity [13]: Non-Toxic; activity at 3.16 µM [14]: < 5%; Selectivity Index [15]: 11160; inhibition at 1 µM [16]: 0%; concentration [17]: 42 nM; inhibition at 1 µM [18]: 27%; inhibition at 1 µM [19]: 11%; inhibition at 1 µM [20]: 4%
0.3				COc1c(C)cc(-c2ccc(C(=O)c3c(F)ccc(O)c3F)s2)cc1Cl	
